Reference: patent publication US20240165243A1, “EGFR DEGRADERS AND METHODS OF USE” (BeiGene Switzerland GmbH, priority 2021, published 2024)

Assays:
[1] = target: EGFR (L858R/T790M/C797S) (Homo sapiens, UniProt P00533, C797S/L858R/T790M); test: Cell degradation HTRF assay, H1975-clone #25 cells; type: cell-based; details: H1975-clone #25 (L858R/T790M/C797S) cells, 16 h treatment; for DC50: HTRF, read-out: H1975-clone#25 LTC DC50; for Dmax: maximum percentage of degradation, read-out: H1975-clone#25 LTC Dmax (%)
Experimental: Cell Degradation of Example 124-189
H1975-#28 and H1975-#25 cells are treated with compounds diluted in 0.2% DMSO cell culture medium on day 2, incubate for 16 h, 37° C., 5% CO2. the final concentration of compounds in all assay is start with 10 uM, 5-fold dilution, total 8 doses were included.
After 16 h treatment, add HTRF lysis buffer to each well; seal the plate and incubate 1 hour at room temperature on a plate shaker; Once the cells are lysed, 16 μL of cell lysate are transferred to a PE 384-well HTRF detection plate; 4 μL of pre-mixed HTRF antibodies are added to each well; Cover the plate with a plate sealer, spin 1000 rpm for 1 min, Incubate overnight at room temperature; Read on BMG PheraStar with HTRF protocol (337 nm-665 nm-620 nm).
The inhibition (degradation) percentage of the compound was calculated by the following equation:
Inhibition percentage of Compound=100−100×(Signal−low control)/(High control−low control), wherein signal=each test compound group.
High control=Cell group with added DMSO and without compound, indicating microplate readings without EGFR degradation;
Dmax is the maximum percentage of inhibition (degradation).
The IC50 (DC50) value of a compound can be obtained by fitting the following equation
Y=Bottom+(TOP−Bottom)/(1+((IC50/X)^hillslope))
Wherein, X and Y are known values, and IC50, Hillslope, Top and Bottom are the parameters obtained by fitting with software. Y is the inhibition percentage (calculated from the equation), X is the concentration of the compound; IC50 is the concentration of the compound when the 50% inhibition is reached. The smaller the IC50 value is, the stronger the inhibitory ability of the compound is. Vice versa, the higher the IC50 value is, the weaker the ability the inhibitory ability of the compound is; Hillslope represents the slope of the fitted curve, generally around 1*; Bottom represents the minimum value of the curve obtained by data fitting, which is generally 0%±20%; Top represents the maximum value of the curve obtained by data fitting, which is generally 100%±20%. The experimental data were fitted by calculating and analyzing with Dotmatics data analysis software. When Dmax<50%, DC50 will be automatically assigned as larger than […].

[2] = system: EGFR (Del19/T790M/C797S); test: Cell degradation HTRF assay, H1975-clone #28 cells; type: cell-based; details: H1975-clone #28 (Del19/T790M/C797S) cells, 16 h treatment; for DC50: HTRF, read-out: H1975-clone#28 DTC DC50; for H1975-clone#28 DTC Dmax (%): maximum percentage of degradation
Procedure, shortened: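 H1975 clones #25 and #28 were treated 16 h at 37° C, 5% CO2 with 8 doses (top 10 uM, 5-fold dilution) in 0.2% DMSO medium. EGFR in lysates read by HTRF (665/620 nm); degradation % relative to DMSO high control; DC50 from 4-parameter fit, Dmax = maximal degradation.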

Chain of EGFR (L858R/T790M/C797S) (P00533 25-1210 T790M/C797S/L858R): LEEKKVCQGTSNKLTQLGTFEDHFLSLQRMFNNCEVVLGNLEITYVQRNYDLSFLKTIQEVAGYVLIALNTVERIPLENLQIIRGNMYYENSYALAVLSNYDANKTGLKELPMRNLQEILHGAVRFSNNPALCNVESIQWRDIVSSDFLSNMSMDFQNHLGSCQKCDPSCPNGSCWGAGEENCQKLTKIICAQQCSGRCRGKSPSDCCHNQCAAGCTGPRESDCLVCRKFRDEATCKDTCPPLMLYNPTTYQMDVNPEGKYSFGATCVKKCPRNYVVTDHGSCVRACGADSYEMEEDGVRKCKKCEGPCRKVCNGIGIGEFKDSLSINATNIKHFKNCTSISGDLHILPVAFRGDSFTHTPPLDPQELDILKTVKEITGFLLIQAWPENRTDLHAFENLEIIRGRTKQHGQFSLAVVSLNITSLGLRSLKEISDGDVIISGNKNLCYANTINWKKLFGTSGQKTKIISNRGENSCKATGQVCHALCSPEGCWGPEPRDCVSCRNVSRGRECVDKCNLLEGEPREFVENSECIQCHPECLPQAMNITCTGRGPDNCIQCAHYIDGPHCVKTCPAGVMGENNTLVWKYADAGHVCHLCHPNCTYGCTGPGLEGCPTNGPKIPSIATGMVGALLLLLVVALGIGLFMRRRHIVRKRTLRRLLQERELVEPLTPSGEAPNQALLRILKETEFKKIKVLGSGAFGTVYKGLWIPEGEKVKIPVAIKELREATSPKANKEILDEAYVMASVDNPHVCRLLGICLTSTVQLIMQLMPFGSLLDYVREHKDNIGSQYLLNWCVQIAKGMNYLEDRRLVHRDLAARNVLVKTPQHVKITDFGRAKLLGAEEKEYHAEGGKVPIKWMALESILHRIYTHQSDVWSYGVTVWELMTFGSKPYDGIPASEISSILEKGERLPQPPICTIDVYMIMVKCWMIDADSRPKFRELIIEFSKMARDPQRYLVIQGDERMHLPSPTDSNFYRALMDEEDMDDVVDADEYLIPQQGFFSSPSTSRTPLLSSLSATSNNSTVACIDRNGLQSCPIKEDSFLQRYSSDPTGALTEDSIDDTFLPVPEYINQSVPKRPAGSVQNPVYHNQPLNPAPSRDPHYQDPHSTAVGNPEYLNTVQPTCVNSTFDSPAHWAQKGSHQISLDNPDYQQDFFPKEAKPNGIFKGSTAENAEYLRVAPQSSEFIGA

DC50 [1] [nM]	Dmax [1] [%]	DC50 [2] [nM]	SMILES	H1975-clone#28 DTC Dmax (%) [2] [%]
4.2	81	2.8	CCc1cc(Nc2ncc(Br)c(Nc3cnc4ccc(C(F)(F)F)cc4c3P(C)(C)=O)n2)c(OC)cc1N1CCC(N2CCN(CCc3cccc4c3n(C)c(=O)n4C3CCC(=O)NC3=O)CC2)CC1 (stereo not drawn) [Example 166, 3-(4-(2-(4-(1-(4-((5-bromo-4-((4-(dimethylphosphoryl)-6-(trifluoromethyl)quinolin-3-yl)amino)pyrimidin-2-yl)amino)-2-ethyl-5-methoxyphenyl)piperidin-4-yl)piperazin-1-yl)ethyl)-3-methyl-2-oxo-2,3-dihydro-1H-benzo[d]imidazol-1-yl)piperidine-2,6-dione]	80
15.3	77	0.4	CCOc1cc(N2CCC(N3CCN(CCc4cccc5c4n(C)c(=O)n5C4CCC(=O)NC4=O)CC3)CC2)c(CC)cc1Nc1ncc(Br)c(Nc2cnc3cc(F)ccc3c2P(C)(C)=O)n1 (stereo not drawn) [Example 147, 3-(4-(2-(4-(1-(4-((5-bromo-4-((4-(dimethylphosphoryl)-7-fluoroquinolin-3-yl)amino)pyrimidin-2-yl)amino)-5-ethoxy-2-ethylphenyl)piperidin-4-yl)piperazin-1-yl)ethyl)-3-methyl-2-oxo-2,3-dihydro-1H-benzol[d]imidazol-1-yl) piperidine-2,6-dione]	84
3.4	77	1.4	CCOc1cc(N2CCC(N3CCN(CCc4cccc5c4n(C)c(=O)n5C4CCC(=O)NC4=O)CC3)CC2)c(CC)cc1Nc1ncc(Br)c(Nc2cnc3ccc(F)cc3c2P(C)(C)=O)n1 (stereo not drawn) [Example 124, 3-(4-(2-(4-(1-(4-((5-bromo-4-((4-(dimethylphosphoryl)-6-fluoroquinolin-3-yl)amino)pyrimidin-2-yl)amino)-5-ethoxy-2-ethylphenyl)piperidin-4-yl)piperazin-1-yl)ethyl)-3-methyl-2-oxo-2,3-dihydro-1H-benzol[d]imidazol-1-yl) piperidine-2,6-dione]	73
